Read-outs that look alike come from different tables or passages of the source. Some results are limits rather than exact numbers.

The target of experiment [1] is T1, ERG auto-inhibited construct (ERGi, 272-388) (Homo sapiens, UniProt P11308).
T1 construct: made in house
T1 sequence (P11308 272-388 isoform P11308-1): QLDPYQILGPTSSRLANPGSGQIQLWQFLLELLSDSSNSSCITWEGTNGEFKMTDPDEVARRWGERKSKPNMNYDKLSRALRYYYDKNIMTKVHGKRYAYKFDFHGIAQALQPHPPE
In words: ERGi-DNA fluorescence polarization assay. The class given is binding. An excerpt:
(§1) The constructs of ERG which retain full auto-inhibition were previously delineated (17). Fluorescence polarization-based assays for DNA binding were then developed, which were used for screening. In addition to the auto-inhibited form of ERG, it was important to also have an assay using its Ets domain, i.e., the uninhibited form of the protein, to compare action of compounds. Compounds which are active against the auto-inhibited form of the protein but have little or no effect on the uninhibited form were sought, indicating their binding is mediated by the non-conserved auto-inhibitory modules rather than the highly conserved Ets domain. […] Fragment screening is an alternative approach that has gained a great deal of favor in the pharma industry recently that employs relatively small molecules (22). […] The auto-inhibited construct was screened first with a dose dependent screen of actives with ERGi using fluorescein- and Texas Red-DNA and then the positive hits were counter-screened with the ERG Ets domain, specifically a screen of actives with ERGu, the latter screen serving to remove compounds which bind to the conserved Ets domain or to DNA, which left 26 compounds which inhibit the auto-inhibited construct of ERG binding to DNA but not the uninhibited ERG (the Ets domain) binding to DNA. ERGi is the auto-inhibited construct of ERG (272-388) and ERGu is the uninhibited DNA binding domain construct of ERG (289-378). […] The IC50 of the validated hits was 0.6-7 mM. […] Importantly, chemical shift changes upon compound addition are observed in the ^15N-^1H HSQC NMR spectra of ERG for amino acids located in the auto-inhibitory modules of ERG, indicating they do interact with these regions of the protein. It is critical to also develop assays for other ETS family members to assess the specificity of action of the compounds identified in the screen, so auto-inhibited constructs were expressed and assays were developed for five other ETS family members and assays for additional members of the family were also developed.
(§2) Using a standard medicinal chemistry approach, further optimization of the fragment hits were pursued. The specificity of parent fragments and their optimized derivatives with 5 additional Ets proteins which are representatives of 5 additional sub-families, were evaluated, as shown in Table 2. […] NA in Table 2 represents no activity up to the 2000 μM maximum concentration. >number in Table 2 represents some activity at highest concentrations so data fit with a lower bound to obtain an estimate of IC50.
On the technique in general: Fluorescence polarisation rises when a labelled molecule tumbles more slowly, as on binding a larger partner.

The target in experiment [2] is T2, ERG isolated Ets domain (ERGu, 289-378) (Homo sapiens, UniProt P11308).
T2 construct: made in house
T2 sequence (P11308 289-378 isoform P11308-1): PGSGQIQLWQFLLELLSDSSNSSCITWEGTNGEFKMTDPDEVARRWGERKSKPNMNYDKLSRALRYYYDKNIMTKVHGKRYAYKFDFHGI
In words: Fluorescence polarization DNA binding assay, uninhibited ERG. As to conditions: FP DNA binding, NA = no activity up to 2000 μM, >number = estimate from fit with lower bound.
Description: as §1, §2

The target of another experiment is T3, ELK1 (Homo sapiens, UniProt P19419).
T3 sequence (P19419 1-428): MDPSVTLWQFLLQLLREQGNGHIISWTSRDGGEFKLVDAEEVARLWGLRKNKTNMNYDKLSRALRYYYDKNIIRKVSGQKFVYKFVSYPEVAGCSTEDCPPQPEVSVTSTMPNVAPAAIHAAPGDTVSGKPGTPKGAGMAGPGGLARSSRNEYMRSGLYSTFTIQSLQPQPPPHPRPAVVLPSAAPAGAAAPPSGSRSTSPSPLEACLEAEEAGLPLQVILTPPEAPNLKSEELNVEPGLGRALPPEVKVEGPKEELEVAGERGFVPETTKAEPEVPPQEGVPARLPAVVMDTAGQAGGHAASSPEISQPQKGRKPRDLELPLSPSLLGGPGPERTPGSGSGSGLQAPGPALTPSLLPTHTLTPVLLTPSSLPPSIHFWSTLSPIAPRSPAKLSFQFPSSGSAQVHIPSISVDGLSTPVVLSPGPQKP
In words: Fluorescence polarization DNA binding assay, auto-inhibited ELK1. As to conditions: auto-inhibited construct; NA = no activity up to 2000 μM; >number = estimate from fit with lower bound.
Description: as §1, §2

For another experiment, the target named is T4, ELF3 (Homo sapiens, UniProt P78545).
T4 sequence (P78545 1-371): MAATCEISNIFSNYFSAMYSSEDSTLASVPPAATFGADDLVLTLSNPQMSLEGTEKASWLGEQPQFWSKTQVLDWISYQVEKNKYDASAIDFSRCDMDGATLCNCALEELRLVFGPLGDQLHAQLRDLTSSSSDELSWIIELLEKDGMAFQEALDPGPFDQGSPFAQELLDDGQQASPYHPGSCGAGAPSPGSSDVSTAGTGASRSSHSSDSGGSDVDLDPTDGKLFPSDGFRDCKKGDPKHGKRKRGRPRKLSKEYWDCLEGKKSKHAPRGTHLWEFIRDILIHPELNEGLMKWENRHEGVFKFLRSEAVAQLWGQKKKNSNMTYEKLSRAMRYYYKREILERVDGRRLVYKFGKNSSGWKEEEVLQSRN
In words: Fluorescence polarization DNA binding assay, auto-inhibited ELF3. As to conditions: auto-inhibited construct; NA = no activity up to 2000 μM; >number = estimate from fit with lower bound.
Description: as §1, §2

The next experiment has as its target T5, Ets1 (Homo sapiens, UniProt P14921).
T5 sequence (P14921 1-441): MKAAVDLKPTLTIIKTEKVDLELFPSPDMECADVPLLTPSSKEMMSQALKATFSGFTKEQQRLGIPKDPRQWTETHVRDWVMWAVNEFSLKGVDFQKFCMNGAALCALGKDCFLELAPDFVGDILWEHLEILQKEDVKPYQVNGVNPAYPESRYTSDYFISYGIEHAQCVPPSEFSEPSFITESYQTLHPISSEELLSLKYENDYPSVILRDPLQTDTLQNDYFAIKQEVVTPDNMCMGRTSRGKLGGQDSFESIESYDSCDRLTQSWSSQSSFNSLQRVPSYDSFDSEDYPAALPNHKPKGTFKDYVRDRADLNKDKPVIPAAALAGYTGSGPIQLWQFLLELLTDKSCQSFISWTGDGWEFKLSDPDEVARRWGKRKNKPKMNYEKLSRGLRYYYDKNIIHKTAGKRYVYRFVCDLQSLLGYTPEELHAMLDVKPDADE
In words: Fluorescence polarization DNA binding assay, auto-inhibited Ets-1. As to conditions: auto-inhibited construct; NA = no activity up to 2000 μM; >number = estimate from fit with lower bound.
Description: as §1, §2

For the next experiment, the target named is Spi1 (PU.1) (Homo sapiens, UniProt P17947). The experiment in a line: Fluorescence polarization DNA binding assay, auto-inhibited PU.1. As to conditions: auto-inhibited construct; NA = no activity up to 2000 μM; >number = estimate from fit with lower bound.
Description: as §1, §2

The target in a further experiment is T6, ETV6 (TEL) (Homo sapiens, UniProt P41212).
T6 sequence (P41212 1-452): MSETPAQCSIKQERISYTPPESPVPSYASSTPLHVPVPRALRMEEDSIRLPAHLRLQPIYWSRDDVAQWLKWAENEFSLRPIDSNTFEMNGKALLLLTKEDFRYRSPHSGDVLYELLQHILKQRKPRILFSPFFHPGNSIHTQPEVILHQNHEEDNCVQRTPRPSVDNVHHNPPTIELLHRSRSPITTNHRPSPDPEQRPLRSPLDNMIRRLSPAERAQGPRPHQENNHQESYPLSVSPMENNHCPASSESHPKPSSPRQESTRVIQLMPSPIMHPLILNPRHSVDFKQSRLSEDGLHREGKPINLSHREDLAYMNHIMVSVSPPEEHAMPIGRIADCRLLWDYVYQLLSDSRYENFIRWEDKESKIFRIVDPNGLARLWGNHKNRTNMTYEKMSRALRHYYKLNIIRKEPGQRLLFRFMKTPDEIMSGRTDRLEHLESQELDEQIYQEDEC
The experiment in a line: Fluorescence polarization DNA binding assay, auto-inhibited ETV6. As to conditions: auto-inhibited construct; NA = no activity up to 2000 μM; >number = estimate from fit with lower bound.
Description: as §1, §2

The test system of experiment [3] is Ewing's sarcoma cell lines. In words: Growth of Ewing's sarcoma cell lines. Format: cell-based. As to conditions: read-out: IC50 values for inhibition of the growth. As for the experimental part: The compounds of formula (I), in particular those in Table 3, were tested for their effects on the growth of Ewing sarcoma cell lines as well as a rhabdomyosarcoma cell line as a control. The inhibitors are active against Ewing sarcoma cell lines with sub μM EC50 values but not active with the rhabdomyosarcoma cell line. The relative activity of the compounds in the biochemical assay was also observed in the cellular data, consistent with an on-target mechanism of action. […] The inhibitor decreases expression of the two genes activated by EWS-FL11 and activates the expression of the gene repressed by EWS-FLI1, consistent with an on-target mechanism of action. The inhibitors have also been evaluated across a panel of leukemia cell lines and see selective activity on cell lines with an ERG and/or FLI1 dependence.
Evaluation of ERG inhibitors on Ewing's sarcoma cell lines. FIGS. 16A-16D show the results of treatment of Ewing's sarcoma cell lines with the bivalent ERG inhibitors. […] Ewing's sarcoma has EWS-FLI1 and EWS-ERG fusions (FLI1 is highly homologous to ERG). ERG inhibitors show submicromolar EC50 values for Ewing's sarcoma cell lines. […] Importantly, for the unrelated rhabdomyosarcoma cell line included in this panel, there was minimal inhibition of growth.

[4] abbreviates: FP DNA binding, maximum concentration 2000 μM, read-out: IC50 ERG Auto-inhibited construct.
Where [5] appears, read: optimized fragment analogs, values in text, read-out: IC50.

The term IC50 denotes the concentration at which inhibition is half-maximal. `Cc1ccc(OCC(=O)Nc2cccc(O)c2)cc1` [Compound 6H6]: the IC50 in experiment [1] (setting [4]) is 588 µM; in experiment [2] it was more than 2000 µM; at ELK1, more than 4500 µM; at ELF3 it was more than 2000 µM; at Ets1 it was more than 4000 µM; on Spi1 (PU.1), more than 2000 µM. In addition, at ETV6 (TEL), the IC50 is more than 2000 µM.

Turning to `Nc1ccc(Cl)c(-c2nc3ccccc3o2)c1` [Compound 9B5], the half-inhibitory concentration (IC50) was 965 µM in experiment [1] (setting [4]); more than 2000 µM in experiment [2]; more than 2100 µM on ELK1; 1830 µM on ELF3; more than 2000 µM at Ets1; more than 4100 µM on Spi1 (PU.1). For the same molecule, the IC50 on ETV6 (TEL) is more than 2500 µM.

As for `COc1cccc2cc(C(C)=O)oc12` [Compound 9F1], the half-inhibitory concentration (IC50) (in experiment [2]; at ELK1; at ELF3; on Ets1; at Spi1 (PU.1); at ETV6 (TEL)) was more than 2000 µM in each case.

Consider `COc1ccc(-c2c(C(C)=O)oc3c(OC)cccc23)cc1` [KK-16-69], for which the IC50 in experiment [1] (setting [5]) was 99 µM; in experiment [2] it was more than 2000 µM; on ELK1, more than 2000 µM; on ELF3, more than 2000 µM; on Ets1, more than 2000 µM; on Spi1 (PU.1), more than 5700 µM. The half-maximal inhibitory concentration (IC50) on ETV6 (TEL) was more than 7800 µM.

For the molecule `COc1cc(OCC(=O)Nc2cccc(O)c2)ccc1C` [KK-22-93], the half-inhibitory concentration (IC50) is 88 µM in experiment [1] (setting [5]); more than 3000 µM in experiment [2]; more than 4750 µM at ELK1; more than 2000 µM at ELF3; more than 3600 µM on Ets1; more than 2000 µM on Spi1 (PU.1). Moreover, on ETV6 (TEL), the IC50 was more than 2000 µM.

Regarding `CCNc1cc(-c2nc3ccccc3o2)ccc1C` [KK-23-07], the 50% inhibitory concentration (IC50) in experiment [1] (setting [4]) was 837 µM; in experiment [2], more than 2000 µM; on ELK1, more than 2500 µM; on ELF3, 1740 µM; on Ets1, more than 2600 µM; at Spi1 (PU.1), more than 3300 µM. The IC50 at ETV6 (TEL) was more than 4400 µM.

Regarding `Cc1ccc(-c2nc3cc(Cl)c(NC(=O)CCOCCn4cc(COCCOCCOCCOc5ccc(S(=O)(=O)C6CCN(C(=O)/C=C/c7cc8ccccc8o7)C6)cc5)nn4)cc3o2)cc1` (stereo not drawn) [KK-36-84], the 50% inhibitory concentration (IC50) in experiment [3] is not above 1 µM.

The values are drawn from patent US20250361227A1, “INHIBITORS OF FLI1 AND ERG” (UNIVERSITY OF VIRGINIA PATENT FOUNDATION, priority 2022, published 2025).
